Measured values published in patent US20250171423A1, “PHARMACEUTICAL COMPOUNDS FOR THE TREATMENT OF COMPLEMENT MEDIATED DISORDERS” (Achillion Pharmaceuticals, Inc., priority 2020, published 2025).
pIC50: −log10 of the molar value.

Molecular target: T1, Human complement C1s enzyme (Homo sapiens, UniProt P09871)
T1 construct: purified from human serum, Complement Technology, Inc; purchased Complement Technology, Inc; host or cells: human serum
T1 sequence (P09871 438-688 limits assumed): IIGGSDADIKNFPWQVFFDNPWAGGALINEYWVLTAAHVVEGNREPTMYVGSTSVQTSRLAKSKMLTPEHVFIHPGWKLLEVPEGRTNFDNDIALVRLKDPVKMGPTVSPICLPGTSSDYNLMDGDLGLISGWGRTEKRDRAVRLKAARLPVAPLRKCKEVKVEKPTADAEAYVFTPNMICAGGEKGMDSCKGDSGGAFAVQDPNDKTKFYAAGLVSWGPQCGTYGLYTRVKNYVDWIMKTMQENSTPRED
T1 sequence (P09871 16-437 partner limits assumed): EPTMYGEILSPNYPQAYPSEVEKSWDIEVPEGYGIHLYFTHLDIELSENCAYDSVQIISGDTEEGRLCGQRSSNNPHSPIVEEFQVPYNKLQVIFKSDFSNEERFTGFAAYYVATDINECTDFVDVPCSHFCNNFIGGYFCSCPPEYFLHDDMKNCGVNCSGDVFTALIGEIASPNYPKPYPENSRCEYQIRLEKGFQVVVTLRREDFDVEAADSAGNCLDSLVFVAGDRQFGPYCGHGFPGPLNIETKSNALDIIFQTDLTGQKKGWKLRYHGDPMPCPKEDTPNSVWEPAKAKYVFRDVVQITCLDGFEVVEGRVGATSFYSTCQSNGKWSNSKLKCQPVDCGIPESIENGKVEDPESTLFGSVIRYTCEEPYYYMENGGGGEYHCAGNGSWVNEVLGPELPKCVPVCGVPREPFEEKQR
Test: Human C1s Enzyme Assay
Format: biochemical
Conditions: human C1s 1.16 nM, 5 min preincubation, substrate Z-L-Lys-SBzl 100 μM, A405; read-out: C1s Protease Activity
Outline: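 IC50 values were fitted by nonlinear regression to rates measured as A405 every 30 s for 30 min. The thioester substrate Z-L-Lys-SBzl and Ellman's reagent were each at 100 μM. Serum-derived C1s at 1.16 nM final had 5 min of room-temperature preincubation with compound (pH 7.5 Tris buffer, 1 M NaCl).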

pIC50, > 7.00:
C[C@@H](NC(=O)[C@@H]1C[C@]2(C)C[C@@H]2N1C(=O)CNC(=O)c1ccc(C(=O)c2ccccc2)cc1)c1cc(C(=N)N)cs1 [Compound 180, (1S,5S)-2-((4-benzoylbenzoyl)glycyl)-N-((R)-1-(4-carbamimidoylthiophen-2-yl)ethyl)-5-methyl-2-azabicyclo[3.1.0]hexane-3-carboxamide]
C[C@@H](NC(=O)[C@@H]1C[C@@H](Oc2ccccc2)CN1C(=O)CNC(=O)c1ccc(Oc2ccccc2)cc1)c1cc(C(=N)N)cs1 [Compound 181, (2S,4R)-N-((R)-1-(4-carbamimidoylthiophen-2-yl)ethyl)-4-phenoxy-1-((4-phenoxybenzoyl)glycyl)pyrrolidine-2-carboxamide]
C[C@@H](NC(=O)[C@@H]1C[C@]2(C)C[C@@H]2N1C(=O)CNC(=O)[C@H](CCOc1ccccc1)NC(=O)CCC(=O)O)c1cc(C(=N)N)cs1 [Compound 184, 4-(((S)-1-((2-((1S,3S,5S)-3-(((R)-1-(4-carbamimidoylthiophen-2-yl)ethyl)carbamoyl)-5-methyl-2-azabicyclo[3.1.0]hexan-2-yl)-2-oxoethyl)amino)-1-oxo-4-phenoxybutan-2-yl)amino)-4-oxobutanoic acid]
CO[C@@H]1C[C@@H](C(=O)N[C@H](C)c2cc(C(=N)N)cs2)N(C(=O)CNC(=O)c2ccc(Oc3ccccc3)cc2)C1 [Compound 185, (2S,4R)-N-((R)-1-(4-carbamimidoylthiophen-2-yl)ethyl)-4-methoxy-1-((4-phenoxybenzoyl)glycyl)pyrrolidine-2-carboxamide]
C[C@@]12C[C@@H]1N(C(=O)CNC(=O)CCCOc1ccccc1C(=O)O)[C@H](C(=O)NCc1cc(C(=N)N)cs1)C2 [Compound 186, 2-(4-((2-((1S,3S,5S)-3-(((4-carbamimidoylthiophen-2-yl)methyl)carbamoyl)-5-methyl-2-azabicyclo[3.1.0]hexan-2-yl)-2-oxoethyl)amino)-4-oxobutoxy)benzoic acid]
C[C@@H](NC(=O)[C@@H]1C[C@](F)(CF)CN1C(=O)CNC(=O)c1ccc(Oc2ccccc2)cc1)c1cc(C(=N)N)cs1 [Compound 187, (2S,4R)-N-((R)-1-(4-carbamimidoylthiophen-2-yl)ethyl)-4-fluoro-4-(fluoromethyl)-1-((4-phenoxybenzoyl)glycyl)pyrrolidine-2-carboxamide]
N=C(N)c1csc(C(NC(=O)[C@@H]2C[C@@H](OC(F)F)CN2C(=O)CNC(=O)c2ccc(Oc3ccccc3)cc2)C(=O)O)c1 (stereo partly drawn) [Compound 190, 2-(4-carbamimidoylthiophen-2-yl)-2-((2S,4R)-4-(difluoromethoxy)-1-((4-phenoxybenzoyl)glycyl)pyrrolidine-2-carboxamido)acetic acid]
C[C@@H](NC(=O)[C@@H]1C[C@@H](S(C)(=O)=O)CN1C(=O)CNC(=O)c1ccc(Oc2ccccc2)cc1)c1cc(C(=N)N)cs1 [Compound 192, (2S,4R)-N-((R)-1-(4-carbamimidoylthiophen-2-yl)ethyl)-4-(methylsulfonyl)-1-((4-phenoxybenzoyl)glycyl)pyrrolidine-2-carboxamide]
N=C(N)c1csc(CNC(=O)[C@@H]2C[C@@]3(CCO3)CN2C(=O)CNC(=O)c2ccc(Oc3ccccc3)cc2)c1 [Compound 194, (4R,7S)-N-((4-carbamimidoylthiophen-2-yl)methyl)-6-((4-phenoxybenzoyl)glycyl)-1-oxa-6-azaspiro[3.4]octane-7-carboxamide]
N=C(N)c1csc(CNC(=O)[C@@H]2C[C@]3(CCO3)CN2C(=O)CNC(=O)c2ccc(Oc3ccccc3)cc2)c1 [Compound 195, (4S,7S)-N-((4-carbamimidoylthiophen-2-yl)methyl)-6-((4-phenoxybenzoyl)glycyl)-1-oxa-6-azaspiro[3.4]octane-7-carboxamide]
COC[C@@]1(F)C[C@@H](C(=O)N[C@H](C)c2cc(C(=N)N)cs2)N(C(=O)CNC(=O)c2ccc(Oc3ccccc3)cc2)C1 [Compound 196, (2S,4R)-N-((R)-1-(4-carbamimidoylthiophen-2-yl)ethyl)-4-fluoro-4-(methoxymethyl)-1-((4-phenoxybenzoyl)glycyl)pyrrolidine-2-carboxamide]
N=C(N)c1csc([C@@H](CO)NC(=O)[C@@H]2C[C@@H](OC(F)F)CN2C(=O)CNC(=O)c2ccc(Oc3ccccc3)cc2)c1 [Compound 197, (2S,4R)-N-((R)-1-(4-carbamimidoylthiophen-2-yl)-2-hydroxyethyl)-4-(difluoromethoxy)-1-((4-phenoxybenzoyl)glycyl)pyrrolidine-2-carboxamide]
N=C(N)c1csc([C@H](CO)NC(=O)[C@@H]2C[C@@H](OC(F)F)CN2C(=O)CNC(=O)c2ccc(Oc3ccccc3)cc2)c1 [Compound 198, (2S,4R)-N-((S)-1-(4-carbamimidoylthiophen-2-yl)-2-hydroxyethyl)-4-(difluoromethoxy)-1-((4-phenoxybenzoyl)glycyl)pyrrolidine-2-carboxamide]

pIC50, < 6.00:
N=C(N)c1csc([C@H](NC(=O)[C@@H]2CC3(CN2C(=O)CNC(=O)CCCOc2ccccc2)OCCO3)c2ccccc2)c1 [Compound 175, (S)-N-((R)-(4-carbamimidoylthiophen-2-yl)(phenyl)methyl)-7-((4-phenoxybutanoyl)glycyl)-1,4-dioxa-7-azaspiro[4.4]nonane-8-carboxamide]
N=C(N)c1csc([C@@H](Cc2ccccc2)NC(=O)[C@@H]2CC3(CN2C(=O)CNC(=O)CCCOc2ccccc2)OCCO3)c1 [Compound 176, (S)-N-((R)-1-(4-carbamimidoylthiophen-2-yl)-2-phenylethyl)-7-((4-phenoxybutanoyl)glycyl)-1,4-dioxa-7-azaspiro[4.4]nonane-8-carboxamide]
N=C(N)c1csc([C@H](NC(=O)[C@@H]2CC3(CN2C(=O)CNC(=O)CCCOc2ccccc2)OCCO3)C2CC2)c1 [Compound 177, (S)-N-((R)-(4-carbamimidoylthiophen-2-yl)(cyclopropyl)methyl)-7-((4-phenoxybutanoyl)glycyl)-1,4-dioxa-7-azaspiro[4.4]nonane-8-carboxamide]
N=C(N)c1csc([C@@H](NC(=O)[C@@H]2CC3(CN2C(=O)CNC(=O)CCCOc2ccccc2)OCCO3)C2CC2)c1 [Compound 178, (S)-N-((S)-(4-carbamimidoylthiophen-2-yl)(cyclopropyl)methyl)-7-((4-phenoxybutanoyl)glycyl)-1,4-dioxa-7-azaspiro[4.4]nonane-8-carboxamide]
N=C(N)c1csc([C@@H](NC(=O)[C@@H]2CC3(CN2C(=O)CNC(=O)CCCOc2ccccc2)OCCO3)C2CCCC2)c1 [Compound 179, (S)-N-((S)-(4-carbamimidoylthiophen-2-yl)(cyclopentyl)methyl)-7-((4-phenoxybutanoyl)glycyl)-1,4-dioxa-7-azaspiro[4.4]nonane-8-carboxamide]
C[C@@]12C[C@@H]1N(C(=O)CNC(=O)c1ccc(Oc3ccccc3)cc1)[C@H](C(=O)NCc1cc3c(s1)CCN=C3N)C2 [Compound 182, (1S,3S,5S)-N-((4-amino-6,7-dihydrothieno[3,2-c]pyridin-2-yl)methyl)-5-methyl-2-((4-phenoxybenzoyl)glycyl)-2-azabicyclo[3.1.0]hexane-3-carboxamide]
N=C(N)c1csc([C@H](NC(=O)[C@@H]2C[C@@H](OC(F)F)CN2C(=O)CNC(=O)c2ccc(Oc3ccccc3)cc2)C2CC2)c1 [Compound 183, (2S,4R)-N-((R)-(4-carbamimidoylthiophen-2-yl)(cyclopropyl)methyl)-4-(difluoromethoxy)-1-((4-phenoxybenzoyl)glycyl)pyrrolidine-2-carboxamide]
COC(=O)C(NC(=O)[C@@H]1C[C@@H](OC(F)F)CN1C(=O)CNC(=O)c1ccc(Oc2ccccc2)cc1)c1cc(C(=N)N)cs1 (stereo partly drawn) [Compound 189, methyl 2-(4-carbamimidoylthiophen-2-yl)-2-((2S,4R)-4-(difluoromethoxy)-1-((4-phenoxybenzoyl)glycyl)pyrrolidine-2-carboxamido)acetate]
CC(C)C[C@@H](NC(=O)[C@@H]1C[C@@H](OC(F)F)CN1C(=O)CNC(=O)c1ccc(Oc2ccccc2)cc1)c1cc(C(=N)N)cs1 [Compound 191, (2S,4R)-N-((R)-1-(4-carbamimidoylthiophen-2-yl)-3-methylbutyl)-4-(difluoromethoxy)-1-((4-phenoxybenzoyl)glycyl)pyrrolidine-2-carboxamide]
N=C(N)c1csc([C@H](NC(=O)[C@@H]2C[C@@H](OC(F)F)CN2C(=O)CNC(=O)c2ccc(Oc3ccccc3)cc2)C2CCCC2)c1 [Compound 193, (2S,4R)-N-((R)-(4-carbamimidoylthiophen-2-yl)(cyclopentyl)methyl)-4-(difluoromethoxy)-1-((4-phenoxybenzoyl)glycyl)pyrrolidine-2-carboxamide]
